Data on two compounds can be found in patent US5210089A, “D-rhamnono-1,5-lactone” (Monsanto Company, priority 1992, dated 1993).

One experiment addresses T1, cytosolic β-glucosidase (Homo sapiens, UniProt Q9H227).
T1 construct: human liver extracts; from tissue; host or cells: human liver extracts
T1 sequence (Q9H227 1-469): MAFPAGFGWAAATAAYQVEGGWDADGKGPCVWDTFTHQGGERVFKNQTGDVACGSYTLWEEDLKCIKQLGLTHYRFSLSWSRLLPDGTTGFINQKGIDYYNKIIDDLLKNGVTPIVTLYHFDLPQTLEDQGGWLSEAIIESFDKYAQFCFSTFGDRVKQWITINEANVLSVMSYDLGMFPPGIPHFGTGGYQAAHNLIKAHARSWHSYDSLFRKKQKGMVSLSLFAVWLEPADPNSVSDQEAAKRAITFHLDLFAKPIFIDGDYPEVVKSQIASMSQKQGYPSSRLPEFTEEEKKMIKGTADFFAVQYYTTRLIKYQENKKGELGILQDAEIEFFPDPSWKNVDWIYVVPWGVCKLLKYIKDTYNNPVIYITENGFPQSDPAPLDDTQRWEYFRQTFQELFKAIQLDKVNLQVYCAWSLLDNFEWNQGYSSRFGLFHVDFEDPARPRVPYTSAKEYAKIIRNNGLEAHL
Briefly: Human liver glycosidase assay, cytosolic β-glucosidase. In kind it is biochemical. The settings on record: for inhibition at 1000 µM: 1 mM compound; for IC50: read-out: I50, cytosolic β-glucosidase. The procedure: Melting points were recorded on a Kofler hot block. Proton nuclear magnetic resonance (δH) spectra were recorded on Varian Gemini 200 (at 200 MHz), Bruker WH 300 (300 MHz), or Bruker AM 500 (500 MHz) spectrometers. Carbon nuclear magnetic resonance (δC) spectra were recorded on a Varian Gemini 200 (50 MHz) or a Bruker 250 (62.9 MHz) spectrometer. Multiplicities were assigned using DEPT sequence on the Gemini and by off resonance decoupling on the Bruker. Spectra run in D2 O were referenced to methanol as an internal standard. All chemical shifts are quoted on the δ-scale. Infrared spectra were recorded on a Perkin-Elmer 297, or on a Perkin-Elmer 781 spectrophotometer. Mass spectra were recorded on VG Micromass 30F, ZAB lF, Masslab 20-250 or Trio-1 GCMS (DB-5 column) spectrometers using desorption chemical ionization (NH3 DCI), electron impact (EI), chemical ionization (NH3 CI) and fast atom bombardment (FAB) techniques, as stated. […] Concentrations were given in g/100 ml. Hydrogenations were run under an atmosphere of hydrogen gas maintained by inflated balloon. Microanalyses were performed by the microanalysis service of the DysonPerrins laboratory, Oxford UK. Thin layer chromatography (t.l.c.) was carried out on aluminum sheets coated with 60F254 silica. Plates were developed using either 5% v/v concentrated sulphuric acid in methanol, 0.2% w/v cerium (IV) sulphate and 5% ammonium molybdate in 2M sulphuric acid and 0.5% ninhydrin in methanol. Flash chromatography was carried out using Sorbsil C60 40/60 silica. Ion-exchange chromatography was performed using Dowex 50W-X8 (H) and Sigma CG 400 (Cl) resins. The resins were washed with 2M hydrochloric acid and 2M sodium hydroxide solution, respectively, and subsequently with distilled water, prior to use. Solvents and commercially available reagents were dried and purified before use according to standard procedures; dichloromethane was refluxed over and distilled from calcium hydride, N,N-dimethylformamide was distilled under reduced pressure from calcium hydride, methanol was distilled from magnesium methoxide, pyridine was distilled from, and stored over, potassium hydroxide and tetrahydrofuran was distilled from a purple solution of sodium benzophenone ketyl immediately before use. Hexane was distilled at 68° C. before use to remove involatile fractions. 2,3-O-Isopropylidene-L-gulono-1,4-lactone (9) [H. Ogura et al., J. Oro. Chem. 37, 72 (1972); G. W. J. Fleet Tetrahedron 45, 319 (1989)]and 2,3-O-isopropylidene-D-gulono-1,4-lactone (15) [L. M. Lerner et al., J. Org. […]
The enzymes included human liver glycosidases and naringinase. The latter enzyme is a readily available endo-L-rhamnosidase described by Romero et al., Anal. Biochem. 149, 566 (1985).

The test system of the next experiment is apricot β-glucosidase. The settings on record: literature; cited from earlier work.
The subject of experiment [1] is rat epidodymal α-mannosidases. The conditions noted are these: literature; cited from earlier work.
The target in the next experiment is T2, Lysosomal α-mannosidase (Homo sapiens, UniProt O00754).
T2 sequence (O00754 50-1011): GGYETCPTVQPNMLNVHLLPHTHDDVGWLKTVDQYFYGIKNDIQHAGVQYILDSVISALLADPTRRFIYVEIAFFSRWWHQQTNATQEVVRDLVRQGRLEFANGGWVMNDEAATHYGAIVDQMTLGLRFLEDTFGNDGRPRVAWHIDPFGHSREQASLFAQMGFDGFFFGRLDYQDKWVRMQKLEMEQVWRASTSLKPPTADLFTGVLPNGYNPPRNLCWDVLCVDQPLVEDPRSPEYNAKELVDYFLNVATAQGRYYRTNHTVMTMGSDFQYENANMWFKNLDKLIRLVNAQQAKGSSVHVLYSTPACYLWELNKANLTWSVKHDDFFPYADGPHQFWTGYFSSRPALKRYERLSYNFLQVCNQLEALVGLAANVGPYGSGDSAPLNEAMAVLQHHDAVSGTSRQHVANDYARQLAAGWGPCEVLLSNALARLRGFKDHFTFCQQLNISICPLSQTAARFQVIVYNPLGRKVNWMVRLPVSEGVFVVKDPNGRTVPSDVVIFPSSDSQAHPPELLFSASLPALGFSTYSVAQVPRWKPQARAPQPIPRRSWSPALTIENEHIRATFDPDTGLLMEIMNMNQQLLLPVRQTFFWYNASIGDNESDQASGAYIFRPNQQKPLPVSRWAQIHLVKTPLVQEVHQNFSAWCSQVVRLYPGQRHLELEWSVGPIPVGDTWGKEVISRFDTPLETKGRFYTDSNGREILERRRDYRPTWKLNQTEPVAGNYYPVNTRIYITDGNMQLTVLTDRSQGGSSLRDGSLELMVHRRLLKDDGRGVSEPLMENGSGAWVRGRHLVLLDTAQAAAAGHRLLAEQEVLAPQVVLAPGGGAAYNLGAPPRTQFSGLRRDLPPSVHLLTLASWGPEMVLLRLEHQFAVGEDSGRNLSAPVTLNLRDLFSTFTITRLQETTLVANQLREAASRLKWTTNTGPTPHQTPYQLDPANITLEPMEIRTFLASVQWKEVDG
The conditions noted are these: literature; cited from earlier work.

Consider `C[C@H]1NC(=O)[C@@H](O)[C@@H](O)[C@@H]1O` [D-Rhamno-1,5-lactam (6), 6-Deoxy-D-mannono-δ-lactam], for which, at cytosolic β-glucosidase, the inhibition (usually the change of the read-out against control, counted positive when it falls) at 1000 µM is 67% and the IC50 is 700 µM.

With `O=C1N[C@H](CO)[C@@H](O)[C@H](O)[C@@H]1O` [Mannono-1,5-lactam (2), D-mannonolactam], the “Inhibition of apricot β-glucosidase (in words)” value with apricot β-glucosidase was “powerful inhibitor”. Also, on cytosolic β-glucosidase, the inhibition at 1000 µM stood at 98% and the IC50 was determined as 50 µM. For the same compound, the “Inhibition of rat epididymal α-mannosidase (in words)” value in experiment [1] is on record as “powerful inhibitor”. The “Inhibition of human lysosomal α-mannosidase (in words)” value on Lysosomal α-mannosidase was “powerful inhibitor”.
